{"source": "patent EP3685668B1", "about": "“COMPOSITION COMPRISING ACIBENZOLAR-S-METHYL AS EFFECTIVE INGREDIENT FOR CONTROLLING BURSAPHELENCHUS XYLOPHILUS DISEASE AND METHOD FOR CONTROLLING BURSAPHELENCHUS XYLOPHILUS USING SAME” (Industry Foundation of Chonnam National University, priority 2017, dated 2019)", "test_in_all_cases": "qRT-PCR expression of induced resistance gene in pine tree callus", "assay_type_in_all_cases": "cell-based", "key": {"PR_3 family class 4": {"system": "PR_3 family class 4", "conditions": "for Expression of induced resistance gene, PR_3 family class 4: 24 hours", "method": "(§1) For in vitro analysis of induced resistance, the expression of PR genes and other plant defense-related genes was determined, which are evolved in various defense mechanisms including induced resistance. The primers of sixteen induced resistance-related genes of pine tree used in this invention were listed in the below and elongation factor_1 alpha were used as a reference gene. [Table 4] The primer list of defense resistance-related genes\n(§2) After the treatment with 200 µg / mℓ of candidates of the selected induced resistance material, expression of the induced resistance-related gene in pine callus was determined by qRT-PCR using the primer pairs of defense resistance-related genes in Table 4. As a candidate group of an induced resistance material in pine tree, acibenzolar-S-methyl (ASM), TDL (Tiadinil), ITL (Isotianil), PBZ (Probenzole), AZO (Azoxystrobin), VMA (Validamycin A), MeJA (Methyl jasmonate), BABA (DL-3-aminobutyric acid), 2,3-BDO (2,3-Butanediol), GABA (r-Aminobutyric acid), glucan (Glucan), ER (Ergosterol), and AZA (Azelaic acid) were used. For the in vitro analysis of the expression of induced resistance gene in pine callus, the selected induced resistance materials were applied with 500 µℓ of LM liquid medium on a surface of pine tree callus (100 mg) in 12-well microplate to give final concentration of 200 µg/mℓ. Then, the callus surface was sufficiently reacted for 24 hours with the candidate of pine tree induced resistance material by shaking at 50 rpm in a 25 °C shaking incubator under dark condition. RNAs were extracted from the callus after completion of the reaction with an induced resistance material, followed by synthesis of cDNAs. Then, by carrying out qRT-PCR, the expression of induced resistance genes was determined. [Table 5] Expression of induced resistance gene in pine tree callus by TDL, PBZ, ASM, ITL, AZO, VMA, glucan, and AZA\n(§3) Based on the results of assay using young plants and gene expression by selected induce resistance materials, it seemed that acibenzolar-S-methyl had the most excellent effect. Thus, the following tests were carried out using acibenzolar-S-methyl only. Expression of the induced resistance genes at different culture time after the chemical treatment was examined. For the in vitro assay, LM medium containing pine tree callus was treated with acibenzolar-S-methyl at concentration of 200 µg / mℓ, followed by reaction for 1 day, 7 days, or 14 days in a 25°C shaking incubator under dark condition. RNAs were extracted from the callus after the reaction followed by synthesis of cDNAs. Then, by carrying out qRT-PCR, the expression of the induced resistance genes was determined. Depending on reaction time after the treatment, i.e., after 1 day, 7 days, or 14 days, the expression of the obtained induced resistance genes was examined. As a result of the in vitro callus assay depending on reaction time after the treatment with acibenzolar-S-methyl, the expression of the induced resistance-related genes is the highest at 1 day after the treatment with acibenzolar-S-methyl and gradually diminished over time, as it is shown in Table 7. In this regard, it is contemplated that the expression of genes acquired by acibenzolar-S-methyl is not maintained in highly expressed state until the pathogen invasion and just memorized with at minimum level so that the energy consumption by plant can be efficiently managed. [Table 7] Expression of induced resistance gene in pine tree callus by acibenzolar-S-methyl depending on reaction time\n(§4) To have an in vitro assay according to different methods of treatment with acibenzolar-S-methyl, two separate treatment methods, i.e., surface treatment (spraying treatment) of pine tree callus and direct application of the induced resistance material to an LM medium containing pine tree callus, were performed. […]"}, "Xyloglucan": {"system": "Xyloglucan", "conditions": "200 µg/mℓ; for Expression of induced resistance gene, Xyloglucan: 24 hours", "method": "as §1, §2, §3, §4"}, "PR_9 family": {"system": "PR_9 family", "conditions": "for Expression of induced resistance gene, PR_9 family: 24 hours", "method": "as §1, §2, §3, §4"}, "Extensin": {"system": "Extensin", "conditions": "for Expression of induced resistance gene, Extensin: 24 hours", "method": "as §1, §2, §3, §4"}, "PR_10 family": {"system": "PR_10 family", "conditions": "for Expression of induced resistance gene, PR_10 family: 24 hours", "method": "as §1, §2, §3, §4"}, "PR_2 family": {"system": "PR_2 family", "conditions": "for Expression of induced resistance gene, PR_2 family: 24 hours", "method": "as §1, §2, §3, §4"}, "Antipeptide": {"system": "Antipeptide", "conditions": "200 µg/mℓ; for Expression of induced resistance gene, Antipeptide: 24 hours", "method": "as §1, §2, §3, §4"}, "[1]": {"conditions": "200 µg/mℓ, Direct supplying as a medium component"}, "[2]": {"conditions": "concentration series, 200 µg/mℓ"}, "[3]": {"conditions": "Direct supplying as a medium component"}}, "data": [{"smiles": "CSC(=O)c1cccc2nnsc12", "note": "[ASM, acibenzolar-S-methyl]", "values": [{"measurement": "Expression of induced resistance gene, PR_3 family class 4", "setting": "PR_3 family class 4; 200 µg/mℓ", "result": 3.86}, {"measurement": "Expression of induced resistance gene, PR_3 family class 4", "setting": "PR_3 family class 4; [1]", "result": 11.96}, {"measurement": "Expression of induced resistance gene, PR_3 family class 4", "setting": "PR_3 family class 4; 200 µg/mℓ, Spraying", "result": 3.86}, {"measurement": "Gene expression level, PR_3 family class 4", "setting": "PR_3 family class 4; 200 µg/mℓ, After 1 day", "result": 11.96}, {"measurement": "Gene expression level, PR_3 family class 4", "setting": "PR_3 family class 4; 200 µg/mℓ, After 7 days", "result": 7.67}, {"measurement": "Gene expression level, PR_3 family class 4", "setting": "PR_3 family class 4; 200 µg/mℓ, After 14 days", "result": 0.86}, {"measurement": "Gene expression level, PR_3 family class 4", "setting": "PR_3 family class 4; concentration series, 2 µg/mℓ", "result": 32.22}, {"measurement": "Gene expression level, PR_3 family class 4", "setting": "PR_3 family class 4; concentration series, 20 µg/mℓ", "result": 42.52}, {"measurement": "Gene expression level, PR_3 family class 4", "setting": "PR_3 family class 4; [2]", "result": 24.93}, {"measurement": "Expression of induced resistance gene, Xyloglucan", "setting": "Xyloglucan", "result": 2.36}, {"measurement": "Expression of induced resistance gene, Xyloglucan", "setting": "Xyloglucan; [3]", "result": 17.51}, {"measurement": "Expression of induced resistance gene, Xyloglucan", "setting": "Xyloglucan; Spraying", "result": 2.36}, {"measurement": "Gene expression level, Xyloglucan", "setting": "Xyloglucan; After 1 day", "result": 29.86}, {"measurement": "Gene expression level, Xyloglucan", "setting": "Xyloglucan; After 7 days", "result": 2.81}, {"measurement": "Gene expression level, Xyloglucan", "setting": "Xyloglucan; After 14 days", "result": 1.06}, {"measurement": "Gene expression level, Xyloglucan", "setting": "Xyloglucan; concentration series", "result": 37.01}, {"measurement": "Expression of induced resistance gene, PR_9 family", "setting": "PR_9 family; 200 µg/mℓ", "result": 2}, {"measurement": "Expression of induced resistance gene, PR_9 family", "setting": "PR_9 family; [1]", "result": 8.57}, {"measurement": "Expression of induced resistance gene, PR_9 family", "setting": "PR_9 family; 200 µg/mℓ, Spraying", "result": 2}, {"measurement": "Gene expression level, PR_9 family", "setting": "PR_9 family; 200 µg/mℓ, After 1 day", "result": 1}, {"measurement": "Gene expression level, PR_9 family", "setting": "PR_9 family; 200 µg/mℓ, After 7 days", "result": 1}, {"measurement": "Gene expression level, PR_9 family", "setting": "PR_9 family; 200 µg/mℓ, After 14 days", "result": 1}, {"measurement": "Gene expression level, PR_9 family", "setting": "PR_9 family; concentration series, 2 µg/mℓ", "result": 0.7526}, {"measurement": "Gene expression level, PR_9 family", "setting": "PR_9 family; concentration series, 20 µg/mℓ", "result": 0.79}, {"measurement": "Gene expression level, PR_9 family", "setting": "PR_9 family; [2]", "result": 0.9526}, {"measurement": "Expression of induced resistance gene, Extensin", "setting": "Extensin; 200 µg/mℓ", "result": 2.1}, {"measurement": "Expression of induced resistance gene, Extensin", "setting": "Extensin; [1]", "result": 2.27}, {"measurement": "Expression of induced resistance gene, Extensin", "setting": "Extensin; 200 µg/mℓ, Spraying", "result": 2.1}, {"measurement": "Gene expression level, Extensin", "setting": "Extensin; 200 µg/mℓ, After 1 day", "result": 9.99}, {"measurement": "Gene expression level, Extensin", "setting": "Extensin; 200 µg/mℓ, After 7 days", "result": 1.23}, {"measurement": "Gene expression level, Extensin", "setting": "Extensin; 200 µg/mℓ, After 14 days", "result": 0.33}, {"measurement": "Gene expression level, Extensin", "setting": "Extensin; concentration series, 2 µg/mℓ", "result": 0.9012}, {"measurement": "Gene expression level, Extensin", "setting": "Extensin; concentration series, 20 µg/mℓ", "result": 1.385}, {"measurement": "Gene expression level, Extensin", "setting": "Extensin; [2]", "result": 1.693}, {"measurement": "Expression of induced resistance gene, PR_10 family", "setting": "PR_10 family; 200 µg/mℓ", "result": 1.71}, {"measurement": "Expression of induced resistance gene, PR_10 family", "setting": "PR_10 family; [1]", "result": 10.63}, {"measurement": "Expression of induced resistance gene, PR_10 family", "setting": "PR_10 family; 200 µg/mℓ, Spraying", "result": 1.71}, {"measurement": "Gene expression level, PR_10 family", "setting": "PR_10 family; 200 µg/mℓ, After 1 day", "result": 8.57}, {"measurement": "Gene expression level, PR_10 family", "setting": "PR_10 family; 200 µg/mℓ, After 7 days", "result": 0.51}, {"measurement": "Gene expression level, PR_10 family", "setting": "PR_10 family; 200 µg/mℓ, After 14 days", "result": 0.64}, {"measurement": "Gene expression level, PR_10 family", "setting": "PR_10 family; concentration series, 2 µg/mℓ", "result": 0.8293}, {"measurement": "Gene expression level, PR_10 family", "setting": "PR_10 family; concentration series, 20 µg/mℓ", "result": 1.11}, {"measurement": "Gene expression level, PR_10 family", "setting": "PR_10 family; [2]", "result": 1.094}, {"measurement": "Expression of induced resistance gene, PR_2 family", "setting": "PR_2 family; 200 µg/mℓ", "result": 1.65}, {"measurement": "Expression of induced resistance gene, PR_2 family", "setting": "PR_2 family; [1]", "result": 5.5}, {"measurement": "Expression of induced resistance gene, PR_2 family", "setting": "PR_2 family; 200 µg/mℓ, Spraying", "result": 1.65}, {"measurement": "Gene expression level, PR_2 family", "setting": "PR_2 family; 200 µg/mℓ, After 1 day", "result": 5.5}, {"measurement": "Gene expression level, PR_2 family", "setting": "PR_2 family; 200 µg/mℓ, After 7 days", "result": 0.97}, {"measurement": "Gene expression level, PR_2 family", "setting": "PR_2 family; 200 µg/mℓ, After 14 days", "result": 0.42}, {"measurement": "Gene expression level, PR_2 family", "setting": "PR_2 family; concentration series, 20 µg/mℓ", "result": 2.694}, {"measurement": "Gene expression level, PR_2 family", "setting": "PR_2 family; [2]", "result": 1.117}, {"measurement": "Expression of induced resistance gene, Antipeptide", "setting": "Antipeptide", "result": 1.83}, {"measurement": "Expression of induced resistance gene, Antipeptide", "setting": "Antipeptide; [3]", "result": 7.21}, {"measurement": "Expression of induced resistance gene, Antipeptide", "setting": "Antipeptide; Spraying", "result": 1.83}, {"measurement": "Gene expression level, Antipeptide", "setting": "Antipeptide; After 1 day", "result": 10.63}, {"measurement": "Gene expression level, Antipeptide", "setting": "Antipeptide; After 7 days", "result": 1.28}, {"measurement": "Gene expression level, Antipeptide", "setting": "Antipeptide; After 14 days", "result": 0.58}, {"measurement": "Gene expression level, Antipeptide", "setting": "Antipeptide; concentration series", "result": 5.352}]}]}
